Laboratory results taken from ChEMBL document CHEMBL1147469, “Design and synthesis of de novo cytotoxic alkaloids through mimicking taxoid skeleton” (Bioorg Med Chem Lett, 2004).
pIC50: −log10 of the molar value.

Legend:
Assay type in all cases: functional, cell-based
[1] = tested on: MDA-MB-435; test: In vitro cytotoxic activity against growth of MDR1 transduced line (LCC6-MDR) after 72 hr; conditions: Homo sapiens, MDA-MB-435, 72 h
[2] = tested on: MCF7R; test: In vitro cytotoxic activity against growth of MDR phenotype human breast carcinoma cell line (MCF-7-R) after 72 hr
[3] = tested on: MCF7S; test: In vitro cytotoxic activity against growth of human breast carcinoma cell line (MCF-7-S) after 72 hr
[4] = tested on: MDA-MB-435; test: In vitro cytotoxic activity against growth of human breast carcinoma cell line (LCC6-WT) after 72 hr; conditions: MDA-MB-435, 72 h

## CC(C)C[C@@H]1NC(=O)OCCCc2cccc(c2)C(=O)O[C@H]2C=CC(=O)N3C[C@H](C[C@H]23)OC(=O)[C@@H]1O
[1]
  pIC50: < 4.70
[2]; Homo sapiens, MCF7R, 72 h
  pIC50: < 4.70
[3]; Homo sapiens, MCF7S, 72 h
  pIC50: < 4.70
[4]
  pIC50: < 4.70

## COc1cccc(C(=O)O[C@H]2CCC(=O)N3C[C@@H](OC(=O)[C@H](O)[C@H](CC(C)C)NC(=O)OC(C)(C)C)C[C@H]23)c1
[1]
  pIC50: < 4.70
[2]; Homo sapiens, MCF7R, 72 h
  pIC50: < 4.70
[3]; Homo sapiens, MCF7S, 72 h
  pIC50: 4.85
[4]
  pIC50: < 4.70

## CC(=O)O[C@H]1C(=O)[C@@]2(C)[C@H]([C@H](OC(=O)c3ccccc3)[C@]3(O)C[C@H](OC(=O)[C@H](O)[C@@H](NC(=O)c4ccccc4)c4ccccc4)C(C)=C1C3(C)C)[C@]1(OC(C)=O)CO[C@@H]1C[C@@H]2O [PACLITAXEL]
[1]
  pIC50: 6.42
[2]; Homo sapiens, MCF7R, 72 h
  pIC50: 5.93
[3]; Homo sapiens, MCF7S, 72 h
  pIC50: 8.70
[4]
  pIC50: 8.40

## CISPLATIN
[2]; mcf7r
  pIC50: 5.45
[3]; mcf7s
  pIC50: 5.40
